Assay results taken from patent EP1763509B1, “ALPHA-HELICAL MIMETICS” (THE WALTER AND ELIZA HALL INSTITUTE OF MEDICAL RESEARCH, priority 2004, dated 2006).

Legend:
[1] = biological target: Mcl-1 (Homo sapiens, UniProt Q07820); assay: Alphascreen GST competition binding assay, benzoylurea compounds vs Biotinylated Bak BH3 peptide on GST tagged Mcl-1 protein; conditions: GST tagged Mcl-1 protein 0.4 nM, Biotinylated Bak BH3 peptide 4.0 nM, 4 hours at room temperature; n.b. = not binding in the assay conditions
Mcl-1, sequence (Q07820 whole entry, species assumed): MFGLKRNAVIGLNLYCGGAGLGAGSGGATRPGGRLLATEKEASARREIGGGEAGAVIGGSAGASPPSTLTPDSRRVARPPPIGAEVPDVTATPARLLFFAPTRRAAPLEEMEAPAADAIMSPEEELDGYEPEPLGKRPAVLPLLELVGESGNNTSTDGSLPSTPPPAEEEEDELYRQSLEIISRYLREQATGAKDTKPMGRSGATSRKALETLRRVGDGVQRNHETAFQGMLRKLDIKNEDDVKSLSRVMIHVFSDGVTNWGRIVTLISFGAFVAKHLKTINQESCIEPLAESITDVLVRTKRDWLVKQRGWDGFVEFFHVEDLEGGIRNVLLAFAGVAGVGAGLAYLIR

[2] = biological target: T1, Bcl-xLΔ25 (Homo sapiens, UniProt Q07817); assay: Alphascreen GST competition binding assay, benzoylurea compounds vs Biotinylated Bim BH3-26 peptide on GST tagged Bcl-xL ΔC25 protein; conditions: GST tagged Bcl-xL ΔC25 protein 0.6 nM, Biotinylated Bim BH3-26 peptide 5.0 nM, 4 hours at room temperature; n.b. = not binding in the assay conditions
T1 construct: GST tagged Bcl-xL ΔC25 protein
T1 sequence (Q07817 1-208 limits assumed, stated change not applied): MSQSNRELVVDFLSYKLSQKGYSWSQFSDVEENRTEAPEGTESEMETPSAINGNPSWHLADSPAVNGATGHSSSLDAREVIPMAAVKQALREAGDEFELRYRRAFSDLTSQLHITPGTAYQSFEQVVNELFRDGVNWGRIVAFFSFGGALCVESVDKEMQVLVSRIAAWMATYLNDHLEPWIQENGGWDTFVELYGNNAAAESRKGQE

[3] = biological target: T2, Bcl-wΔ29 (Homo sapiens, UniProt Q92843); assay: Alphascreen GST competition binding assay, benzoylurea compounds vs Biotinylated Bim BH3-26 peptide on GST tagged Bclw ΔC29 protein; conditions: GST tagged Bclw ΔC29 protein 0.05 nM, Biotinylated Bim BH3-26 peptide 3.0 nM, 4 hours at room temperature; values marked a tested in a separate experiment; n.b. = not binding in the assay conditions
T2 construct: GST tagged Bclw ΔC29 protein
T2 sequence (Q92843 1-164 limits assumed): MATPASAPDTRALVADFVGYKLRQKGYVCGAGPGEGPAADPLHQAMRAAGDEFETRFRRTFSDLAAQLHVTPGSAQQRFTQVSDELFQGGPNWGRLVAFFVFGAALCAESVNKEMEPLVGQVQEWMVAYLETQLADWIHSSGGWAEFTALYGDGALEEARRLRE

Structure (SMILES) | IC50 [2] | IC50 [3] | also measured
CCCN(C(=O)N[C@@H](CSCC(C)C)C(=O)O)C(=O)c1cccc(C#Cc2ccc(OC)cc2)c1 [(147)] | 50 µM | – | IC50 [1]: 85 µM
CCCN(C(=O)N[C@@H](CSCC(C)C)C(=O)NS(=O)(=O)c1ccc(Br)cc1)C(=O)c1cccc(C#Cc2ccccc2)c1 [(152)] | 48 µM | – | –
CCCN(C(=O)N[C@@H](CCSC)CC(=O)O)C(=O)c1cccc(C#Cc2ccccc2)c1 [(121)] | 141 µM | – | –
CCCN(C(=O)N[C@H](CC(=O)O)Cc1cccc2ccccc12)C(=O)c1cccc(C#Cc2ccccc2)c1 [(119)] | 67 µM | – | –
CCCN(C(=O)N[C@@H](Cc1csc2ccccc12)C(=O)O)C(=O)c1cccc(C#Cc2ccccc2)c1 [(117)] | 35 µM | – | –
CCCN(C(=O)N[C@@H](CSCc1ccccc1)C(=O)O)C(=O)c1cccc(-c2ccccc2)c1 [(1)] | 70.1 µM | 38 µM | –
CC(C)CSC[C@H](NC(=O)N(CC(C)C)C(=O)c1cccc(C#Cc2ccccc2)c1)C(=O)O [(131)] | 20 µM | – | –
O=C(O)[C@H](CSCc1ccccc1)NC(=O)N(Cc1ccccc1)C(=O)c1cccc(-c2ccccc2)c1 [(8)] | 36.4 µM | 46 µM | –
CCC(C)N(C(=O)N[C@@H](CSCc1ccccc1)C(=O)O)C(=O)c1cccc(-c2ccccc2)c1 (mixture of isomers) [(4)] | 148 µM | 149 µM | –
CCCN(C(=O)N[C@@H](CSCC1CCCCC1)C(=O)O)C(=O)c1cccc(C#Cc2ccccc2)c1 [(127)] | 40 µM | – | –
CCCN(C(=O)N[C@@H](CSCC(C)C)C(=O)O)C(=O)c1cccc(C#Cc2cccc(Br)c2)c1 [(142)] | 32 µM | – | IC50 [1]: 70 µM
CCCN(C(=O)N[C@@H](CSCC(CC)CC)C(=O)O)C(=O)c1cccc(C#Cc2ccccc2)c1 [(126)] | 90 µM | – | –
CCCCSC[C@H](NC(=O)N(CCC)C(=O)c1cccc(C#Cc2ccccc2)c1)C(=O)O [(122)] | 26 µM | – | –
CCCN(C(=O)N[C@@H](CSCC(C)C)C(=O)NS(=O)(=O)c1ccc(NCCSc2ccccc2)c([N+](=O)[O-])c1)C(=O)c1cccc(C#Cc2ccccc2)c1 [(156)] | 10 µM | – | –
CCCCCSC[C@H](NC(=O)N(CCC)C(=O)c1cccc(C#Cc2ccccc2)c1)C(=O)O [(123)] | 30 µM | – | –
CCCN(C(=O)N[C@@H](CSCC1CC1)C(=O)O)C(=O)c1cccc(C#Cc2ccccc2)c1 [(128)] | 53 µM | – | –
CCCN(C(=O)N[C@@H](CSCC(C)C)C(=O)NS(=O)(=O)c1ccc(-c2ccccc2)cc1)C(=O)c1cccc(C#Cc2ccccc2)c1 [(154)] | 42 µM | – | –
CCCN(C(=O)N[C@@H](CSCC(C)C)C(=O)O)C(=O)c1cccc(C#Cc2ccncc2)c1 [(150)] | – | – | Bcl-xLΔ25 IC50 (µM) [2]: n.b.^b
CCCN(C(=O)N[C@@H](CSCC(C)C)C(=O)O)C(=O)c1cccc(C#Cc2ccccc2OC)c1 [(146)] | 46 µM | – | Mcl-1 IC50 (µM) [1]: n.b.^b
CCCN(C(=O)N[C@@H](CSCC(C)C)C(=O)O)C(=O)c1cccc(C#Cc2ccc(C)cc2)c1 [(145)] | 48 µM | – | IC50 [1]: 92 µM
CCCN(C(=O)N[C@@H](CSCC(C)C)C(=O)O)C(=O)c1cccc(C#Cc2ccccc2C)c1 [(143)] | 30 µM | – | IC50 [1]: 74 µM
CSCCN(C(=O)N[C@@H](CSCC(C)C)C(=O)O)C(=O)c1cccc(C#Cc2ccccc2)c1 [(133)] | 27 µM | – | –
CCCN(C(=O)N[C@@H](CSCC(C)C)C(=O)O)C(=O)c1cccc(C#Cc2cccnc2)c1 [(151)] | 212 µM | – | –
CCCN(C(=O)N[C@H](CC(=O)O)Cc1ccc2ccccc2c1)C(=O)c1cccc(C#Cc2ccccc2)c1 [(118)] | 34 µM | – | –
CCCN(C(=O)N[C@H](CC(=O)O)Cc1c[nH]c2ccccc12)C(=O)c1cccc(C#Cc2ccccc2)c1 [(116)] | 19 µM | – | –
CCCN(C(=O)N[C@@H](CSCC(C)C)C(=O)O)C(=O)c1cccc(C#Cc2ccc(Oc3ccccc3)cc2)c1 [(148)] | 172 µM | – | IC50 [1]: 71 µM

Structure (SMILES) | IC50 [2] | IC50 [3] | also measured
CCCN(C(=O)N[C@@H](CSCc1ccccc1)C(=O)O)C(=O)c1cccc(Cc2ccccc2)c1 [(33)] | – | 72 µM | –
CCCN(C(=O)N[C@@H](CSCC(C)C)C(=O)O)C(=O)c1cccc(C#Cc2ccc(C(C)(C)C)cc2)c1 [(149)] | 107 µM | – | –
CCCCN(C(=O)N[C@@H](CSCc1ccccc1)C(=O)O)C(=O)c1cccc(-c2ccccc2)c1 [(2)] | 56.8 µM | 57 µM | –
O=C(O)[C@H](CSCc1ccccc1)NC(=O)N(CC1CCCCC1)C(=O)c1cccc(-c2ccccc2)c1 [(7)] | 45.2 µM | 37 µM | –
O=C(O)[C@H](CSCc1ccccc1)NC(=O)N(Cc1cccnc1)C(=O)c1cccc(-c2ccccc2)c1 [(12)] | – | 46 µM | –
CCCN(C(=O)N[C@@H](CCc1ccccc1)CC(=O)O)C(=O)c1cccc(C#Cc2ccccc2)c1 [(120)] | 44 µM | – | –
CCCN(C(=O)N[C@@H](CSCC(C)C)C(=O)NS(=O)(=O)c1cccc(Br)c1)C(=O)c1cccc(C#Cc2ccccc2)c1 [(153)] | 40 µM | – | –
O=C(O)[C@H](CSCc1ccccc1)NC(=O)N(CCC1CC1)C(=O)c1cccc(-c2ccccc2)c1 [(37)] | – | 60 µM | –
CCCN(C(=O)N[C@@H](CSCc1ccccc1)C(=O)O)C(=O)c1cccc(-c2ccc(Cl)cc2)c1 [(59)] | – | 68 µM | –
CCCN(C(=O)N[C@@H](CSCc1ccccc1)C(=O)O)C(=O)c1cccc(-c2ccccc2Cl)c1 [(46)] | – | 38 µM | –
CCCN(C(=O)N[C@@H](Cc1ccc2ccccc2c1)C(=O)O)C(=O)c1cccc(-c2ccccc2)c1 [(17)] | – | 55 µM | –
CC(C)CN(C(=O)N[C@@H](CSCc1ccccc1)C(=O)O)C(=O)c1cccc(-c2ccccc2)c1 [(3)] | 65.8 µM | 65 µM | –
CCCN(C(=O)N[C@@H](Cc1ccccc1)C(=O)O)C(=O)c1cccc(-c2ccccc2)c1 [(27)] | – | 194 µM | –
CC(C)CCN(C(=O)N[C@@H](CSCc1ccccc1)C(=O)O)C(=O)c1cccc(-c2ccccc2)c1 [(39)] | – | 50 µM | –
CCCN(C(=O)NCC(=O)O)C(=O)c1cccc(-c2ccccc2)c1 [(71)] | – | – | Bcl-wΔ29 IC50 (µM) [3]: n.b.^b
CCCN(C(=O)N[C@@H](CSCC1CCC1)C(=O)O)C(=O)c1cccc(C#Cc2ccccc2)c1 [(129)] | 37 µM | – | –
CC(C)N(C(=O)N[C@@H](CSCc1ccccc1)C(=O)O)C(=O)c1cccc(-c2ccccc2)c1 [(5)] | 153 µM | 266 µM | –
CCCCN(C(=O)N[C@@H](CSCC(C)C)C(=O)O)C(=O)c1cccc(C#Cc2ccccc2)c1 [(130)] | 39 µM | – | –
CCN(C(=O)N[C@@H](CSCc1ccccc1)C(=O)O)C(=O)c1cccc(-c2ccccc2)c1 [(70)] | – | 153 µM | –
CCCN(C(=O)N[C@@H](C[S+]([O-])Cc1ccccc1)C(=O)O)C(=O)c1cccc(-c2ccccc2)c1 (stereo partly drawn) [(31)] | – | 165 µM | –
CCCN(C(=O)N[C@@H](CSCCC(C)C)C(=O)O)C(=O)c1cccc(C#Cc2ccccc2)c1 [(124)] | 33 µM | – | –
O=C(O)[C@H](CSCc1ccccc1)NC(=O)N(C(=O)c1cccc(-c2ccccc2)c1)C1CCCCC1 [(6)] | 54.2 µM | 73 µM | –
CCCN(C(=O)N[C@@H](CSCc1ccccc1)C(=O)O)C(=O)c1cc(CC(=O)O)cc(-c2ccccc2)c1 [(81)] | – | 144 µM | –
CCCN(C(=O)N[C@@H](CSCc1ccccc1)C(=O)O)C(=O)c1ccc(Cc2ccccc2)cc1 [(34)] | – | 72 µM | –
CC(C)CCN(C(=O)N[C@@H](CSCC(C)C)C(=O)O)C(=O)c1cccc(C#Cc2ccccc2)c1 [(132)] | 24 µM | – | –
O=C(O)[C@H](CSCc1ccccc1)NC(=O)N(Cc1cccc2ccccc12)C(=O)c1cccc(-c2ccc(F)cc2)c1 [(36)] | – | 47 µM | –
